Key:
[1] = tested on: gastrointestinal bleeding; assay: Guaiac test on fecal pellets after indomethacin; format: in vivo, C57BL/6J mice; conditions: 10 mg/kg oral, following morning
Protocol: For indomethacin experiments, animals were inoculated with blood sensor bacteria and fecal pellets were collected 6 hours later for luminescence analysis and CFU enumeration. Indomethacin (Sigma) solution was prepared by dissolving the compound in absolute ethanol to a concentration of 20 mg/mL. Immediately prior to mouse gavage, the indomethacin stock solution was diluted to 1.25 mg/mL in PBS and 0.2 mL of dilute indomethacin solution was administered to each animal (10 mg/kg). Preparation of indomethacin solution using this method was essential to ensure reliable and reproducible induction of gastrointestinal bleeding. The following morning, gastrointestinal bleeding was confirmed by performing a guaiac test (Hemoccult, Beckman Coulter) on fecal pellets from each animal. […] Subsequently, mice were again administered blood sensor bacteria and fecal pellets were collected 6 hours later for luminescence analysis and CFU enumeration.

PL(HrtO) = assay: HrtR-mediated repression of PL(HrtO)-luxCDABE luminescence; format: cell-based, E. coli MG1655; conditions: co-transformation of PL(HrtO)-luxCDABE with constitutively expressing HrtR construct
Protocol: For genetic circuit characterization, overnight cultures were diluted 1:100 in fresh LB and incubated with shaking at 37° C. for 2 hours. Cultures were removed from the incubator and 200 μL of culture was transferred to a 96-well plate containing various concentrations of inducer. The plate was returned to a shaking incubator at 37° C. Following 2 hours of incubation, luminescence was read using a BioTek Synergy H1 Hybrid Reader using a […] integration time and a sensitivity of 135. Luminescence values, measured in relative luminescence units (RLUs), were normalized by the optical density of the culture measured at 600 nm. For in vitro kinetic studies, subcultured cells were mixed with inducer in a 96-well plate and immediately placed in the plate reader set at 37° C. without shaking. Luminescence and absorbance was read at 5 minute intervals.

Molecule	guaiac test (gastrointestinal bleeding) [1]	reduction in luminescence (PL(HrtO)) [fold]
COc1ccc2c(c1)c(CC(=O)O)c(C)n2C(=O)c1ccc(Cl)cc1 [indomethacin]	guaiac positive	–
HrtR: heme-regulated TetR-family transcriptional repressor from Lactococcus lactis (protein, Heme-responsive transcriptional repressor, heme-regulated TetR-family transcriptional repressor from Lactococcus lactis) MPKSTYFSLSDEKRKRVYDACLLEFQTHSFHEAKIMHIVKALDIPRGSFYQYFEDLKDSYYYILSQETVEIHDLFFNLLKEYPLEVALNKYKYLLLENLVNSPQYNLYKYRFLDWTYELERDWKPKGEVTVPARELDNPISQVLKSVIHNLVYRMFSENWDEQKFIETYDKEIKLLTEGLLNYVTESKK	–	4.4

— patent US20190313942A1, “INGESTIBLE SYSTEM TO MONITOR GASTROINTESTINAL HEALTH IN SITU” (Massachusetts Institute of Technology, priority 2018, published 2019)
